Data published in patent publication US3961054A, “Combatting dandruff with mercapto quinoline N-oxides” (Ciba-Geigy Corporation, priority 1974, dated 1976).
≈ marks a conversion by molar mass, not a printed value. Where “and” joins values, the source holds several entries; their conditions need not be identical. Equal entries are not always repeated. Structures can show the parent of a compound that is named as a salt. Where two headings read alike, the source gives them in different places.

Experiments:
P. Ovale [1] = test: Microbiological activity against P. Ovale, agar serial dilution (Table 1); assay type: cell-based, P. Ovale (ATCC 14521); details: for MIC: 96 h, read-out: Minimum Inhibitory Concentration (MIC) against P. Ovale
Description: The microbiological activities of the zinc and sodium complexes of 2-mercapto-quinoline-N-oxide (MQNO) against P. Ovale were compared with the sodium and zinc salts of pyridinethione-N-oxide (PTO) and other conventional soapbacteriostats. P. Ovale is a microorganism associated with dandruff conditions.
Equal amounts of the respective compounds were dissolved in methyl cellosolve, dimethylformamide, or water, serially diluted in ten fold sequence and incorporated into plates of molten Agar. The plates were allowed to solidify, were then inoculated with P. Ovale (ATCC 14521), incubated at 27°C. for 4 days and inspected for growth.

P. Ovale [2] = test: Substantivity/activity in calf skin, zone of inhibition against P. Ovale (Table 2); assay type: cell-based; parameters: unit not given here; details: 2% in shampoo, replicate plates 1-4, 27°C, 4 days
Excerpt: The substantivity/activity of the zinc complex of 2-mercapto-quinoline-N-oxide of the invention in calf-skin were compared with the zinc salt of pyridinethione-N-oxide in the following manner. ZnMQNO and ZnPTO were incorporated by blending on a 3-roll mill in amounts of 1% and 2% by weight into a non-bacteriostatic paste shampoo of the following composition.
Calf skin specially prepared by the method of Vinson IN VITRO TESTS FOR MEASURING ANTIBACTERIAL ACTIVITY OF TOILET SOAP AND DETERGENT BARS by L. J. Vinson, E. L. Ambye, A. G. Bennet, Journal of Pharmaceutical Sciences, Vol. 50, P. 10, October, 1961.
0.3 g of shampoo was applied in each instance to 12.5 sq. in. of calf skin (equivalent to […] of shampoo per 90.2 sq. in. of human scalp) and a rich lather worked up for 2 minutes. The calf skin was then rinsed in running tap water for 30 seconds with vigorous message to remove all lather. The moist skin was then given a second lather identical to the first and again rinsed as before. After air drying, the calf skins were cut into 2.1 cm discs and placed on agar inoculated with P. Ovale. After 4 days incubation at 27°C, the zones of inhibition size were recorded.

[3] = tested on: Gram-positive and negative bacteria, fungi and dermatophytes; test: Antimicrobial spectrum, overall (Example 8); assay type: cell-based; details: in words, from Table 3
Description: (§1) Equivalent amounts of ZnMQNO, NaMQNO, ZnPTO and NaPTO were solubilized in methyl cellosolve (PTO) and dimethyl formamide (MQNO). Ten fold serial dilutions were prepared employing additional solvent and equal aliquots pipetted into molten (50°C) agar support media. Nutrient Agar was employed for all bacteria and Mycological Agar was employed for the fungi and dermatophyte. After preparing pour plates for the bacteria and streaks for the fungi and dermatophyte, the plates were incubated (37°C and 27°C, respectively) and observed for growth.

Aspergillus oryzae = test: Antimicrobial spectrum, MIC, Aspergillus oryzae (Table 3); assay type: cell-based, Aspergillus oryzae ATCC 10196; details: for MIC: Aspergillus oryzae
Description: as §1

Staph. aureus = test: Antimicrobial spectrum, MIC, Staph. aureus (Table 3); assay type: cell-based, Staph. aureus ATCC 6538; details: Staphylococcus aureus
Description: as §1

Proteus vulgaris = test: Antimicrobial spectrum, MIC, Proteus vulgaris (Table 3); assay type: cell-based; details: ATCC9920, ATCC 9920, Nutrient Agar, 37°C, ten fold dilutions, read-out: Minimum Inhibitory Concentration, Proteus vulgaris
Description: as §1

[4] = Relative solubility (statement in words); assay type: physicochemical; details: explains smaller zone size in agar
T. interdigitale = test: Antimicrobial spectrum, MIC, T. interdigitale (Table 3); assay type: cell-based, Trichophyton interdigitale ATCC 9533; details: Trichophyton interdigitale, ATCC9533, read-out: Minimum Inhibitory Concentration, T. interdigitale
Description: as §1

dandruff = details: in words; background; cited from earlier work
[5] = Pityrosporum ovale, agar, 27°C, 4 days

## Oc1c(Cl)cc(Cl)cc1Sc1cc(Cl)cc(Cl)c1O [Thio bis(dichlorophenol)]
P. Ovale [1]; agar, 27°C, 4 days
  Minimum Inhibitory Concentration (MIC) against P. Ovale: > 1000 PPM

## Oc1cccc2cccnc12 [8-Hydroxyquinoline]
P. Ovale [1]
  MIC: 100 µg/mL (≈ 0.689 mM)

## Sodium salt of sulphosuccinate of undecylenic-monoalkylolamide
P. Ovale [1]; agar, 27°C, 4 days
  Minimum Inhibitory Concentration (MIC) against P. Ovale: > 1000 PPM

## N-alkyl-dimethyl-ethyl-benzyl ammonium cyclohexyl sulfamate
P. Ovale [1]; agar, 27°C, 4 days
  Minimum Inhibitory Concentration (MIC) against P. Ovale: > 1000 PPM

## Cc1cc(O)cc(C)c1Cl [P-chloro-m-xylenol]
P. Ovale [1]; [5]
  MIC: 1000 µg/mL (≈ 6.39 mM)

## O=C(Nc1ccc(Cl)cc1)Nc1ccc(Cl)c(Cl)c1 [Trichlorocarbanilide]
P. Ovale [1]; agar, 27°C, 4 days
  Minimum Inhibitory Concentration (MIC) against P. Ovale: > 1000 PPM

## O=c1[nH]c2cc(Cl)c(Br)cc2o1 [5-chloro-6-bromobenzoxazo-linone]
P. Ovale [1]; [5]
  MIC: 1000 µg/mL (≈ 4.02 mM)

## m-alkyl-dimethyl-ethyl-benzyl ammonium chloride
P. Ovale [1]; agar, 27°C, 4 days
  Minimum Inhibitory Concentration (MIC) against P. Ovale: > 1000 PPM

## O=C(Nc1ccc(Br)cc1)c1cc(Br)cc(Br)c1O [Tribromo salicyanilide]
P. Ovale [1]; agar, 27°C, 4 days
  Minimum Inhibitory Concentration (MIC) against P. Ovale: 1000 PPM

## Oc1c(Cl)cc(Cl)c(Cl)c1Cc1c(O)c(Cl)cc(Cl)c1Cl [Hexachlorophene]
P. Ovale [1]
  MIC: > 1000 µg/mL

## Oc1c(I)cc(I)c2cccnc12 [Diiodohydroxyquinoline]
P. Ovale [1]; [5]
  MIC: 1000 µg/mL (≈ 2.52 mM)

## [O-][n+]1ccccc1[S-].[O-][n+]1ccccc1[S-].[Zn+2] [Zn PTO, zinc salt of pyridinethione-N-oxide]
P. Ovale [1]; agar, 27°C, 4 days
  Minimum Inhibitory Concentration (MIC) against P. Ovale: 7-10 PPM
P. Ovale [2]; listed as Zinc PTO
  Zone of Inhibition Against P. Ovale - Calf Skin, 1 Application: 4.5 and 4.0 and 5.0
  Zone of Inhibition Against P. Ovale - Calf Skin, 2 Applications: 10.0 and 7.0 and 5.0
[3]
  antimicrobial spectrum: broad-spectrum antimicrobial agents showing good activity at low concentrations against Gram-positive and negative bacteria, fungi and dermatophytes
Aspergillus oryzae; ATCC 10196, Mycological Agar, 27°C, ten fold dilutions
  Minimum Inhibitory Concentration, Aspergillus oryzae: 10 100 PPM

## O=C(Nc1ccc(Cl)cc1)c1cc(Cl)cc(Cl)c1O [Trichloro salicyanilide]
P. Ovale [1]; agar, 27°C, 4 days
  Minimum Inhibitory Concentration (MIC) against P. Ovale: > 1000 PPM

## [O-][n+]1c(S)ccc2ccccc21 [Na MQNO, Sodium Complex Of 2-Mercapto-Quinoline-N-Oxide]
P. Ovale [1]; [5]
  MIC: 50 to 60 µg/mL
Staph. aureus; ATCC6538, ATCC 6538, Nutrient Agar, 37°C, ten fold dilutions, read-out: Minimum Inhibitory Concentration, Staph. aureus
  MIC: 0.1 µg/mL
Proteus vulgaris
  MIC: 0.1 µg/mL
Aspergillus oryzae; ATCC10196, ATCC 10196, Mycological Agar, 27°C, ten fold dilutions, read-out: Minimum Inhibitory Concentration, Aspergillus oryzae
  MIC: 10100 µg/mL

## [O-][n+]1c(S)ccc2ccccc21.[Zn] [Zn MQNO, Zinc 2-mercaptoquinoline-N-oxide]
[4]
  solubility relative to ZnPTO: less soluble than ZnPTO
T. interdigitale
  MIC: 10100 µg/mL
P. Ovale [2]; listed as MONO
  Zone of Inhibition Against P. Ovale - Calf Skin, 1 Application: 0.5 and 1.5 and 1.0
  Zone of Inhibition Against P. Ovale - Calf Skin, 2 Applications: 2.0 and 4.5 and 2.5

## Oc1ccc(Cl)cc1Sc1cc(Cl)ccc1O [2,2'-dihydroxy-5.5'-dichlorodiphenyl monosulfide]
P. Ovale [1]
  MIC: > 1000 µg/mL

## [O-][n+]1ccccc1S [Na PTO, sodium salt of pyridinethione-N-oxide]
P. Ovale [1]
  MIC: 7 to 10 µg/mL
[3]
  antimicrobial spectrum: broad-spectrum antimicrobial agents showing good activity at low concentrations against Gram-positive and negative bacteria, fungi and dermatophytes
Staph. aureus; ATCC6538, read-out: Minimum Inhibitory Concentration, Staph. aureus
  MIC: 0.1 µg/mL
Aspergillus oryzae; ATCC10196, read-out: Minimum Inhibitory Concentration, Aspergillus oryzae
  MIC: 10100 µg/mL

## Sc1ccc2ccccc2n1 [2-mercaptoquinoline]
P. Ovale [1]; [5]
  MIC: > 1000 µg/mL

## N-alkyl-dimethyl-benzyl ammonium chloride
P. Ovale [1]; agar, 27°C, 4 days
  Minimum Inhibitory Concentration (MIC) against P. Ovale: > 1000 PPM

## Undecen-1-ol
P. Ovale [1]; agar, 27°C, 4 days
  Minimum Inhibitory Concentration (MIC) against P. Ovale: > 1000 PPM

## C=CCCCCCCCCC(=O)O [Undecylenic acid]
P. Ovale [1]
  MIC: 1000 µg/mL (≈ 5.43 mM)

## O=C(Nc1ccc(Cl)c(Cl)c1)c1cc(Cl)cc(Cl)c1O [Tetrachloro salicyanilide]
P. Ovale [1]; agar, 27°C, 4 days
  Minimum Inhibitory Concentration (MIC) against P. Ovale: 1000 PPM

## Sc1ccccn1 [2-mercaptopyridine]
P. Ovale [1]; [5]
  MIC: > 1000 µg/mL

## [S] [elemental sulfur]
dandruff
  anti-dandruff activity (prior art agents): extremely effective in the control of dandruff
